Results reported in patent publication EP1619197A1, “Substituted Pyrido[3',2':4,5]thieno[3,2-d]pyrimidin-2,4(1H,3H)diones and -4(3H)ones as well as Pyrido[3',2':4,5]furo[3,2-d]-pyrimidin-2,4(1H,3H)diones und -4(3H)ones as inhibitors of TNF-alpha release” (Curacyte Discovery GmbH, priority 2004, dated 2006).

system: TNFα-Freisetzung; assay: Inhibition of TNFα release after LPS stimulation of human whole blood (ELISA); assay type: cell-based; conditions: Homo sapiens, 24 h; bei 10nM; read-out: TNFα-Freisetzung hemmen
From the text: Methodenbeschreibung der Hemmung der TNFα Freisetzung nach LPS Stimulation von humanem Vollblut
Die Stimulierung isolierter Leukozyten für die Freisetzung von Zytokinen kann auf verschiedenen Wegen erfolgen. Lipopolysaccharide (LPS) stellen einen Stimulus für die Untersuchung der Freisetzung von TNFα dar. LPS ist Bestandteil bakterieller Zellwände und wird beim Abtöten der Bakterien (durch Antibiotika oder das natürliche Immunsystem) freigesetzt. LPS stimuliert insbesondere die Aktivität phagozytierender Leukozyten (Gewebsmakrophagen, Granulozyten, Monozyten) und verursacht die Infiltration von Leukozyten vom peripheren Blut in das betroffene Gewebe. Ein Zytokin von besonderer Bedeutung für diese Mechanismen ist TNFα, das in großen Mengen durch die betroffenen Zellen sezerniert wird. Hauptquelle dabei sind Monozyten und Makrophagen. TNFα initiiert und prolongiert den Entzündungsprozess im Zusammenspiel mit anderen Mediatoren.
Für die Untersuchung des Effektes auf die LPS-induzierte TNFα-Freisetzung wurde eine Methode verwendet, die von MARX et al. (Marx D, Tassabehji M, Heer S, Hüttenbrink KB, Szelenyi I (2002) Pulmonary Pharmacology & Therapeutics 15 7-15) beschrieben wurde. Die Methode in Kürze: Humanes Blut wurde von verschiedenen Spendern entnommen, durch Zusatz von 10 mM Na-Citrat ungerinnbar gemacht und 1:5 mit RPMI 1640 Zellkulturmedium verdünnt. Die Testsubstanzen wurden den Blutproben in verschiedenen Konzentrationen zugefügt. 15 Minuten später wurden die Leukozyten durch Zusatz von Lipopolysacchariden (LPS) aus Salmonella abortus equi in einer Endkonzentration von 1µg/ml stimuliert. Nach Inkubation der Testansätze für 24 Stunden bei 37°C. und unter 5% CO2 in wassergesättigter Luft, wurde das Blut zentrifugiert und die Konzentration an TNFα im zellfreien Überstand unter Verwendung eines käuflichen ELISA (BD Biosciences) nach Angaben des Herstellers exakt vermessen.

Structure (SMILES)	inhibition at 0.01 µM
CCc1nc2c(sc3nc(-c4ccccc4)cc(C)c32)c(=O)[nH]1 [2-Ethyl-9-methyl-7-phenyl-pyrido[3',2':4,5]thieno[3,2-d]pyrimidin-4-on]	> 20%
COc1ccc(-c2cc(C)c3c(n2)sc2c(=O)[nH]c(=O)[nH]c23)cc1 [7-(4-Methoxyphenyl)-9-methyl-pyrido[3',2':4,5]thieno[3,2-d]pyrimidin-2,4-dion]	> 20%
COc1ccc(-c2cc(C)c3c(n2)sc2c(=O)[nH]c(=O)[nH]c23)cc1OC [7-(3,4-Dimethoxyphenyl)-9-methyl-pyrido[3',2':4,5]thieno[3,2-d]pyrimidin-2,4-dion]	> 20%
Cc1cc(-c2ccccc2)nc2sc3c(=O)[nH]c(=O)[nH]c3c12 [9-Methyl-7-phenyl-pyrido[3',2':4,5]thieno[3,2-d]pyrimidin-2,4-dion]	> 20%
Cc1cc(C)c2c(n1)sc1c(=O)[nH]c(=O)[nH]c12 [7,9-Dimethyl-pyrido[3',2':4,5]thieno[3,2-d]pyrimidin-2,4-dion]	> 20%
CCCc1nc2c(sc3nc(-c4ccccc4)cc(-c4cccnc4)c32)c(=O)[nH]1 [7-Phenyl-2-n-propyl-9-(pyrid-3-yl)-pyrido[3',2':4,5]thieno[3,2-d]pyrimidin-4(3H)-on]	> 20%

same assay, conditions: Homo sapiens, 24 h; bei 100nM; read-out: TNFα-Freisetzung hemmen

Structure (SMILES)	inhibition at 0.1 µM
CSc1nc2c(sc3nc(-c4ccccc4)cc(C)c32)c(=O)[nH]1 [9-Methyl-2-methylthio-7-phenyl-pyrido[3',2':4,5]thieno[3,2-d]pyrimidin-4(3H)-on]	> 10%
Cc1c(-c2ccc([N+](=O)[O-])cc2)c(-c2ccccc2)nc2sc3c(=O)[nH]c(=O)[nH]c3c12 [9-Methyl-8-(4-nitrophenyl)-7-phenyl-pyrido[3',2':4,5]thieno[3,2-d]pyrimidin-2,4(1H,3H)-dion]	> 10%
O=c1[nH]c(=O)c2sc3nc(-c4ccccc4)cc(-c4ccccc4)c3c2[nH]1 [7,9-Diphenyl-pyrido[3',2':4,5]thieno[3,2-d]pyrimidin-2,4-dion]	> 10%

same assay, conditions: bei 10nM

Structure (SMILES)	TNFα-Freisetzung hemmen
Cc1cc(-c2ccc(F)cc2)nc2sc3c(=O)[nH]c(=O)[nH]c3c12 [7-(4-Fluorphenyl)-9-methyl-pyrido[3',2':4,5]thieno[3,2-d]pyrimidin-2,4-dion]	> 20%
O=C(O)c1nc2c(sc3nc(-c4ccccc4)ccc32)c(=O)[nH]1 [7-Phenyl-pyrido[3',2':4,5]thieno[3,2-d]pyrimidin-4(3H)-on-2-carbonsäure]	> 20%

same assay, conditions: bei 100nM

Structure (SMILES)	TNFα-Freisetzung hemmen
CCOC(=O)c1nc2c(sc3nc(-c4ccccc4)ccc32)c(=O)[nH]1 [7-Phenyl-pyrido[3',2':4,5]thieno[3,2-d]pyrimidin-4(3H)-on-2-carbonsäureethylester]	> 10%
Cc1nc2c(sc3nc(-c4ccc(Br)cc4)cc(C)c32)c(=O)[nH]1 [7-(4-Brom-phenyl)-2,9-dimethyl pyrido[3',2':4,5]thieno[3,2-d]pyrimidin-4(3H)-on]	> 10%
